The text below walks through data of US8895590B2, “Epothilone compounds, preparation method and use thereof” (priority 2010, dated 2014).

What all share (assay): Sulforhodamine B (SRB) cytotoxicity test
Common to all, as to type: cell-based
Background: Sulforhodamine B stains cellular protein and so reports cell mass.

One assay deals with MCF-7 (Breast Cancer). The conditions noted are these: cells cultured 3 days with compound, read-out: Half Inhibitory Concentration for Tumor Cell Growth (IC50). As to the method: (§1) Sulforhodamine B (SRB) test was used for screening the selective compounds of the present invention according to their anti-tumor activity on four different tumor cell lines. In SRB analysis, the cultured cells were trypsinized, counted and diluted to a suitable concentration (5000-7500 cells/100 μl) with a culture medium. The cells were inoculated into a 96-well microtiter plate at 100 μl suspension/well. After 20 hours, the test compounds which were diluted in the culture medium to 2×1000 nM˜2×0.001 nM were added to each well. The cells were then cultured for 3 days, fixed with 100 μl 10% trichloroacetic acid at 4° C. for 1 hour, and then stained with 0.2% SRB/1% acetic acid at room temperature for 20 min. The unbound dye was rinsed with 1% acetic acid. The bound dye was dissolved with 200 μl 10 mM Tris-base. The amount of the bound dye was calculated from OD value detected at the wavelength of 515 nm. The amount of the bound dye was in direct proportion to the total amount of cell proteins. The data was analyzed with Kaleida Graph program, and the half inhibitory concentration (IC50) was calculated. Epothilones D and B were detected in parallel for Comparison. The results of the cytotoxicity experiments on the selected test compounds of the present invention are shown as follows. The other compounds of the present invention may also be detected with a similar method.

Assay [1] deals with NCI/ADR-RES (MDR Breast Cancer). The conditions noted are these: cells cultured 3 days with compound, read-out: Half Inhibitory Concentration for Tumor Cell Growth (IC50). As to the method:
as §1

The next assay relates to NCl-H460 (Lung Cancer). The conditions noted are these: cells cultured 3 days with compound, read-out: Half Inhibitory Concentration for Tumor Cell Growth (IC50). As to the method: as §1
The next assay concerns SF-268 (Glioma). The settings on record: cells cultured 3 days with compound, read-out: Half Inhibitory Concentration for Bacterial Growth (IC50). As to the method:
as §1

Like-named read-outs stand apart in the source and are kept apart here.

For 14-N(CH3)2 Epothilone B [II-L], the IC50 stood at 0.05 nM in the assay on MCF-7 (Breast Cancer), 0.1 nM in assay [1], 0.5 nM in the assay on NCl-H460 (Lung Cancer) and 1 nM in the assay with SF-268 (Glioma).
The corresponding values for `C/C1=C/C[C@@H](/C(C)=C/c2csc(C)n2)OC(=O)C[C@H](O)C(C)(C)C(=O)[C@H](C)[C@@H](O)[C@@H](C)CCC1` [Epo D, Epothilone D, reference compound] are 13 nM, 42 nM, 17 nM and 18 nM.
The corresponding values for `C/C(=C\c1csc(C)n1)[C@@H]1C[C@@H]2O[C@]2(C)CCC[C@H](C)[C@H](O)[C@@H](C)C(=O)C(C)(C)[C@@H](O)CC(=O)O1` [Epo B, Epothilone B, reference compound] are 0.5 nM, 5 nM, 0.7 nM and 0.8 nM.
Taken in the same sequence, the figures for 14-NH2 Epothilone D [II-A] were 7 nM, 12 nM, 7 nM and 6 nM.
As for `COC1/C=C(/C)CCC[C@H](C)[C@H](O)[C@@H](C)C(=O)C(C)[C@@H](O)CC(=O)O[C@@H]1/C(C)=C/c1csc(C)n1` (stereo partly drawn) [II-N], the IC50 came out at 2 nM in the assay on MCF-7 (Breast Cancer) (Homo sapiens, MCF7, 72 h); 7 nM in assay [1] (Homo sapiens, 72 h); 2 nM in the assay on NCl-H460 (Lung Cancer) (72 h); 3 nM with SF-268 (Glioma) (Homo sapiens, 72 h).
As to 14-NH2 Epothilone B [II-B], the IC50 in the assay on MCF-7 (Breast Cancer) is 0.1 nM; in assay [1] it was 0.5 nM; in the assay on NCl-H460 (Lung Cancer), 0.2 nM; in the assay with SF-268 (Glioma), 0.2 nM.
